# Tests used:
# [1] = target: T1, Human soluble guanylate cyclase enzyme (hsGC) (Homo sapiens, UniProt Q02108+Q02153); test: Purified human sGC enzyme activity assay (with or without SNP); type: biochemical; details: 30 μM compound; for sGC Enzyme Activity Increase at 30 μM with SNP: 1 μM SNP, specific activity vs DMSO and SNP; for sGC Enzyme Activity Increase at 30 μM without SNP: specific activity vs DMSO control
# T1 construct: purchased Enzo Inc. ALX-201-177
# T1 sequence (Q02153 1-619): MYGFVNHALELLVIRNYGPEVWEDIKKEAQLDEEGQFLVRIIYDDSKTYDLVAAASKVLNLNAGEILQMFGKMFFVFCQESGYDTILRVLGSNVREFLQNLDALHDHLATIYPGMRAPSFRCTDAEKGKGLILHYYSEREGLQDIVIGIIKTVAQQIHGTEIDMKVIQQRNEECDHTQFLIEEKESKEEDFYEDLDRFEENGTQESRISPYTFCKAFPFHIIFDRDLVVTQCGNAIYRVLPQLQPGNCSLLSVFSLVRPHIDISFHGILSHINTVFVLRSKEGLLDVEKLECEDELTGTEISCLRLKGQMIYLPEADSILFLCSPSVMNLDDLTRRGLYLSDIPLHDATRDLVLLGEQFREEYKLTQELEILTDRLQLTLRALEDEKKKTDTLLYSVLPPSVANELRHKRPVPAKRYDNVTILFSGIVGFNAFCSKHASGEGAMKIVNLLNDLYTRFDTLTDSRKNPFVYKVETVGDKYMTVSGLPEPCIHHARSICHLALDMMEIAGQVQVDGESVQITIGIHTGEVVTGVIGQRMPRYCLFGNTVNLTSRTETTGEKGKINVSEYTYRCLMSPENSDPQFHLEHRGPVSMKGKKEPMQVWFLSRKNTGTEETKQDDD
# T1 sequence (Q02108 1-690): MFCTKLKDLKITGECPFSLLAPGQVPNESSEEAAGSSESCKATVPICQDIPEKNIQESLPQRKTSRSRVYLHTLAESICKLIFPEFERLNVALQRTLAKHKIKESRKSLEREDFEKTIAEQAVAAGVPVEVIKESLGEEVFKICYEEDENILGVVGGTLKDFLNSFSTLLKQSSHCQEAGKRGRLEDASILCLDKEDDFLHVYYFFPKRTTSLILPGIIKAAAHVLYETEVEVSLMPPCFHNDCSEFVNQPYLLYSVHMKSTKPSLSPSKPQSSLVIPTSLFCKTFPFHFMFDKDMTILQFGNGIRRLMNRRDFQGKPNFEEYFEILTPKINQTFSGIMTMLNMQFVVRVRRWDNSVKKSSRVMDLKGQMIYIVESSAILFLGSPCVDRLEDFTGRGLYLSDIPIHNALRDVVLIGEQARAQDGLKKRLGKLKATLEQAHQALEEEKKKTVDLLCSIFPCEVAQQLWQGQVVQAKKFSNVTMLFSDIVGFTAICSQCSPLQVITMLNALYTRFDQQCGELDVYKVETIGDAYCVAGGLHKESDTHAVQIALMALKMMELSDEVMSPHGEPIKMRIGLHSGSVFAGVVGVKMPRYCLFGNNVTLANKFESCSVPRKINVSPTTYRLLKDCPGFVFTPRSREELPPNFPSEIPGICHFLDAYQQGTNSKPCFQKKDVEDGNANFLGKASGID
# Procedure: Human soluble guanylate cyclase enzyme (hsGC) obtained from Enzo Inc. (P/N: ALX-201-177) was used to evaluate the activity of test compounds. The assay reactions contained 0.1 M Tris (pH 8.0), 0.5 mg/mL BSA (pH 8.0), 2 mM DTT, 2 mM MgCl2, 300 μM GTP, 1 mM 3-isobutyl-1-methylxanthine (IBMX) and 5 ng human soluble guanylate cyclase enzyme. Test compounds in DMSO were then added (2 μL, 10 or 30 μM final concentration) and incubated (200 μL, 96-well plate format) at 37° C. for 30 minutes. The controls were carried out using 2 μL DMSO. After the 30 minute incubation, the reaction was stopped with the addition of 200 μL of cold methanol. The plate was then centrifuged at 3,200 rpm for 10 minutes at room temperature. Supernatants (200 μL) were collected and transferred to a new 96 well plate for analysis.
# An 8 point cGMP (Sigma-Aldrich P/N: G6129) standard curve was prepared in assay buffer ranging from 0.156-20 μM. Samples for the cGMP standard curve were then diluted with an equal volume of methanol resulting in final cGMP concentrations of 0.078-10 μM.
# The cGMP standard curve was generated using GraphPad Prism Software.
# Calculations: Specific Activity was determined by the amount of cGMP formed (nmoles) per mg of sGC per min. Enzyme activity “fold-change” was calculated by dividing the Specific Activity for a test compound by the Specific Activity of DMSO control.
# The enzymatic activity fold-change of the purified human sGC enzyme determined in the presence of each of the test compounds individually at 10 or 30 μm without the addition of sodium nitroprusside (SNP), a nitric oxide donor, is presented in Table 5.
# Enzyme assays were also performed as described above, but in the presence of 1 μM sodium nitroprusside (SNP). Enzymatic activity fold-changes are reported for selected test compounds in the presence of both SNP and the test compound. These were calculated by dividing the specific activity (activity increase) for the test compound dissolved in DMSO and SNP over the specific activity for the mixture of DMSO and SNP.
# [2] = target: T2, soluble guanylate cyclase (sGC) (Homo sapiens, UniProt Q02108+Q02153); test: sGC-HEK-cGMP assay; type: cell-based; details: HEK293 cells, 10 μM SNP, percentage of sGC activity obtained with positive control BAY 41-2272 (= 100%); for Emax at 10 µM: compound at 10 μM; for Emax at 30 µM: compound at 30 μM
# T2 construct: endogenously expressing soluble guanylate cyclase (sGC); endogenous in cells; host or cells: HEK293
# T2 sequence (Q02153 1-619): T1 sequence (Q02153 1-619)
# T2 sequence (Q02108 1-690): T1 sequence (Q02108 1-690)
# Procedure: Human embryonic kidney cells (HEK293), endogenously expressing soluble guanylate cyclase (sGC), were used to evaluate the activity of the test compounds. Compounds stimulating the sGC receptor should cause an increase in the intracellular concentration of cGMP. HEK 293 cells were seeded in Dulbecco's Modification of Eagle's Medium supplemented with fetal bovine serum (10% final) and L-glutamine (2 mM final) in a 200 μL volume at a density of 1×10^5 cells/well in a poly-D-lysine coated 96 well flat bottom plate and grown overnight at 37° C. Medium was aspirated and cells were washed with 1× Hank's Buffered Saline Salt Solution (200 μL). Cells were then incubated for 15 minutes at 37° C. with 0.5 mM 3-isobutyl-1-methylxanthine (200 μL). Test article was then added to the assay mixture (2 μL) and incubated in the presence of 10 μM Sodium Nitroprusside (SNP) at 37° C. for 10 minutes. After the 10 minute incubation, the assay mixture was aspirated and 0.1M HCl (200 μL) was added to the cells. The plate was incubated at 4° C. for 30 minutes in the 0.1M HCl to stop the reaction and lysed the cells. The plates were then centrifuged at 1,200 g for 5 minutes at room temperature. Supernatants were collected and transferred to a new flat bottom 96 well plate for analysis. Vehicle controls were carried out using DMSO (1%). A known sGC stimulator, BAY 41-2272, was used as the positive control.
# Samples were diluted with an equal volume of 1 M Ammonium Acetate (pH 7) to neutralize samples for better chromatography. A 2×cGMP standard curve was prepared in 0.1 M HCl and then diluted with an equal volume of 1 M Ammonium Acetate, with the following final concentrations in nM: 1024, 512, 256, 128, 64, 32, 16, 8, 4, 2, 1.cGMP concentrations were determined from each sample using the LC/MS conditions (Table 2 below) and calculated standard curve. EC50 values were calculated from concentration-response curves generated with GraphPad Prism Software.
# The biological activities of some of the compounds according to Formula IA or Formula IB determined with the sGC-HEK assay are summarized in Table 3 below.
Structure (SMILES),sGC Enzyme Activity Increase at 30 μM with SNP [1],sGC Enzyme Activity Increase at 30 μM without SNP [1],Emax at 10 µM [2] [%],Emax at 30 µM [2] [%]
Fc1ccccc1Cn1nc(-c2nccs2)nc1-c1ccccn1 [Compound I-26],D (D = 5 to <10 fold increase),C (C = 2 to <5 fold increase),10 to 20,10 to 20
Fc1ccccc1Cn1nc(-c2ncccn2)nc1-c1ccccc1 [Compound I-27],B (B = 1 to <2 fold increase),B (B = 1 to <2 fold increase),0 to 5,0 to 5
Cc1nc(-c2ncccn2)nn1Cc1ccccc1F [Compound I-28],B (B = 1 to <2 fold increase),B (B = 1 to <2 fold increase),0 to 5,0 to 5
Fc1ccccc1Cn1nc(-c2nccs2)nc1-c1ncccn1 [Compound I-29],C (C = 2 to <5 fold increase),B (B = 1 to <2 fold increase),0 to 5,0 to 5
Fc1ccccc1Cn1nc(-c2ccccn2)nc1-c1ncccn1 [Compound I-31],C (C = 2 to <5 fold increase),B (B = 1 to <2 fold increase),0 to 5,0 to 5
Fc1ccccc1Cn1nc(-c2ncccn2)nc1-c1ccccn1 [Compound I-32],C (C = 2 to <5 fold increase),C (C = 2 to <5 fold increase),0 to 5,10 to 20
"COC(=O)c1nc(-c2ccccn2)nn1Cc1ccccc1F [Compound I-35, methyl 1-(2-fluorobenzyl)-3-(pyridin-2-yl)-1H-1,2,4-triazole-5-carboxylate]",C (C = 2 to <5 fold increase),B (B = 1 to <2 fold increase),0 to 5,0 to 5
"Fc1ccccc1Cn1nc(-c2cc(Br)ccn2)nc1-c1nccs1 [Compound I-36, 2-(3-(4-bromopyridin-2-yl)-1-(2-fluorobenzyl)-1H-1,2,4-triazol-5-yl)thiazole]",B (B = 1 to <2 fold increase),B (B = 1 to <2 fold increase),0 to 5,0 to 5
"Fc1ccccc1Cn1nc(-c2nccs2)nc1-c1cc(Br)ccn1 [Compound I-37, 2-(5-(4-bromopyridin-2-yl)-1-(2-fluorobenzyl)-1H-1,2,4-triazol-3-yl)thiazole]",D (D = 5 to <10 fold increase),C (C = 2 to <5 fold increase),10 to 20,20 to 40
Fc1ccc(-c2nc(-c3nccs3)nn2Cc2ccccc2F)nc1 [Compound I-39],C (C = 2 to <5 fold increase),B (B = 1 to <2 fold increase),5 to 10,5 to 10
"Fc1ccccc1Cn1nc(-c2ccccn2)nc1-c1nnco1 [Compound I-42, 2-(1-(2-fluorobenzyl)-3-(pyridin-2-yl)-1H-1,2,4-triazol-5-yl)-1,3,4-oxadiazole]",C (C = 2 to <5 fold increase),B (B = 1 to <2 fold increase),0 to 5,5 to 10
Fc1ccccc1Cn1nc(-c2cocn2)nc1-c1ncccn1 [Compound I-45],B (B = 1 to <2 fold increase),B (B = 1 to <2 fold increase),0 to 5,0 to 5
Nc1ccnc(-c2nc(-c3nccs3)nn2Cc2ccccc2F)c1 [Compound I-47],B (B = 1 to <2 fold increase),B (B = 1 to <2 fold increase),0 to 5,0 to 5
"Fc1ccccc1Cn1nc(-c2ccccn2)nc1-n1ccnc1 [Compound I-49, 2-(1-(2-fluorobenzyl)-5-(1H-imidazol-1-yl)-1H-1,2,4-triazol-3-yl)pyridine]",B (B = 1 to <2 fold increase),B (B = 1 to <2 fold increase),0 to 5,5 to 10
"Fc1ccccc1Cn1nc(-c2cc(Br)ccn2)nc1-c1cscn1 [Compound I-51, 4-(3-(4-bromopyridin-2-yl)-1-(2-fluorobenzyl)-1H-1,2,4-triazol-5-yl)thiazole]",E (E = 10 to <20 fold increase),C (C = 2 to <5 fold increase),20 to 40,20 to 40
